Data published in patent US6524810B2, “Method of making bioluminescent assay reagent based on non-viable E. coli” (Azur Environmental, priority 1998, dated 2003).

Key:
Format in all cases: cell-based
[1] = system: Zeocin treated recombinant bioluminescent E. coli HB101 assay reagent; test: ZnSO4 sensitivity assay, Zeocin treated assay reagent; conditions: for SENSITIVITY-EC50 VALUES, ZEOCIN TREATED: 15 minutes exposure to ZnSO4, % toxic effect on light output
Description: (§1) 1. Bioluminescent genetically modified E. coil strain HB101 (E. coli HB101 made bioluminescent by transformation with a plasmid carrying the lux operon of vibrio fischeri constructed by the method of Shaw and Kado, as described in Biotechnology 4: 560-564) was grown in fermenter as a batch culture in low salt medium (LB(5 g/ml NaCl)+glycerol+MgSO4).
(§2) 2. Two aliquots of the culture were removed from the fermenter into separate sterile shaker flasks at each of three different stages of growth i.e. at OD630 values of 0.038 (lag phase growth), 1.31 (mid-exponential phase growth) and 2.468 (stationary phase growth).
3. One aliquot of culture for each of the three growth stages was inactivated by contact with Zeocin™ (1 mg Zeocin™ added per 2.5×10^6 cells, i.e. the concentration of Zeocin™ per cell is kept constant) for 300 minutes and then processed into assay reagent by freeze drying and reconstitution, as described in part (B) of Example 1.
(§3) 5. Samples of each of the three Zeocin™ treated and three control assay reagents were then evaluated for sensitivity to toxicant (ZnSO4) according to the following assay protocol:
1. ZnSO4 solutions were prepared in pure water at 30, 10, 3, 1, 0.3 and 0.1 ppm. Pure water was also used as a control.
2. Seven vials of each of the three Zeocin™ treated and each of the three control assay reagents (i.e. one for each of the six ZnSO4 solutions and one for the pure water control) were reconstituted using 0.5 ml of reconstitution solution (eg 0.2M sucrose) and then left to stand at room temperature for 15 minutes to allow the light output to stabilize. Base line (time zero) readings of light output were then measured for each of the reconstituted reagents.
3. 0.5 ml aliquots of each of the six ZnSO4 solutions and the pure water control were added to separate vials of reconstituted assay reagent. This was repeated for each of the different Zeocin™ treated and control assay reagents.
(§4) 4. The vials were incubated at room temperature and light output readings were taken 5, 10, 15, 20, 25 and 30 minutes after addition of ZnSO4 solution.
5. The % toxic effect for each sample was calculated as follows: [formula]
where: Co=light in control at time zero
Ct=light in control at reading time
So=light in sample at time zero
(§5) St=light in sample at reading time

[2] = system: recombinant bioluminescent E. coli strain HB101; test: Light output of reconstituted freeze dried assay reagent; conditions: cells exposed to 1.5 mg/ml Zeocin for 5 hours, reconstituted in 0.2M sucrose
Description: Five hours after the addition of Zeocin™ or water the remaining bacterial cells in the Zeocin™ treated and control cultures were harvested by the centrifugation, washed (to remove traces of Zeocin™ from the Zeocin™ treated culture), re-centrifuged and resuspended in cryoprotectant to an OD630 of 0.25. 200 μl aliquots of the cells in cryoprotectant were dispensed into single shot vials, and freeze dried. Freeze dried samples of the Zeocin™ treated cells and control cells were reconstituted in 0.2M sucrose to form assay reagents and the light output of the assay reagents measured at various times after reconstitution.

[3] = system: recombinant bioluminescent E. coli strain HB101; test: Light output of culture during Zeocin treatment (Deltatox luminometer); conditions: 1.5 mg/ml Zeocin; 5 to 300 minutes
Description: (§6) 1. Bioluminescent genetically modified E. coil strain HB101 (E. coli HB101 made bioluminescent by transformation with a plasmid carrying the lux operon of Vibrio fischeri constructed by the method of Shaw and Kado, as described in Biotechnology 4: 560-564) were grown from a frozen stock in 5 ml of low salt medium (LB (5 g/ml NaCl)+glycerol+MgSO4) for 24 hours.
(§7) 2. 1 ml of the 5 ml culture was then used to inoculate 200 ml of low salt medium in a shaker flask and the resultant culture grown to an OD630 of 0.407 (exponential growth phase).
(§8) 3. 50 ml of this culture was removed to a fresh sterile shaker flask (control cells).
4. Zeocin™ was added to the 150 ml of culture in the original shaker flash, to a final concentration of 1.5 mg/ml. At the same time, an equivalent volume of water was added to the 50 ml culture removed from the original flask (control cells).
(§9) 5. The time course of cell inactivation was monitored by removing samples from the culture at 5, 60, 120, 180, 240 and 300 minutes after the addition of Zeocin™ and taking measurements of both light output (measured using a Deltatox luminometer) and viable count (per ml, determined using the method given in Example 3 below) for each of the samples. Samples of the control cells were removed at 5 and 300 minutes after the addition of water and measurements of light output and viable count taken as for the Zeocin™ treated cells.

[4] = system: recombinant bioluminescent E. coli strain HB101; test: Inactivation of bioluminescent E. coli: viable count time course; conditions: 1.5 mg/ml Zeocin; exponential growth phase culture
Description: as §6, §7, §8
4. Zeocin™ was added to the 150 ml of culture in the original shaker flash, to a final concentration of 1.5 mg/ml. […]
as §9, with “Samples of the control cells were removed at 5 and 300 minutes after the addition of water and measurements of light output and viable count taken as for the Zeocin™ treated cells.” left out
5. The number of bacterial colonies present for each of the three aliquots at each of the serial dilutions were counted and the values averaged. Viable count was calculated per ml of bacterial culture.

[5] = system: control (Zeocin untreated) recombinant bioluminescent E. coli HB101 assay reagent; test: ZnSO4 sensitivity assay, control assay reagent; conditions: 15 minutes exposure to ZnSO4, % toxic effect on light output
Description: as §1, §2
4. An equal volume of water was added to the second aliquot of culture for each of the three growth stages and the cultures processed into assay reagent as described above.
as §3
1. […]
2. […] Base line (time zero) readings of light output were then measured for each of the reconstituted reagents. […]
as §4
5. The % toxic effect for each sample was calculated as follows: [formula] […]
Ct=light in control at reading time […]
as §5

Cc1c(N)nc([C@H](CC(N)=O)NC[C@H](N)C(N)=O)nc1C(=O)N[C@H](C(=O)N[C@H](C)[C@@H](O)[C@H](C)C(=O)N[C@H](C(=O)NCCC1=N[C@@H](c2nc(C(=O)NCCCCN=C(N)N)cs2)CS1)[C@@H](C)O)[C@@H](O[C@@H]1O[C@@H](CO)[C@@H](O)[C@H](O)[C@@H]1O[C@H]1O[C@H](CO)[C@@H](O)[C@H](OC(N)=O)[C@@H]1O)c1cnc[nH]1 [Zeocin™, phleomycin D1]
effect of Zeocin treatment on sensitivity of assay reagent to ZnSO4 ([1]; 1 mg Zeocin per 2.5×10^6 cells for 300 minutes, three growth stages, versus control reagents): does not significantly affect
light output of reconstituted assay reagent versus control (Zeocin untreated) cells [2]: not significantly different
light output from the culture with Zeocin contact time [3]: decrease gradually
contact time for complete inactivation of the culture (viable count) [4]: 3 h

O=S(=O)([O-])[O-].[Zn+2] [ZnSO4]
SENSITIVITY-EC50 VALUES, CONTROL CELLS ([5]; Lag Phase assay reagent): 1.580 ppm ZnSO4
SENSITIVITY-EC50 VALUES, CONTROL CELLS ([5]; Stationary phase assay reagent): 0.457 ppm ZnSO4
SENSITIVITY-EC50 VALUES, ZEOCIN TREATED ([1]; Expotential phase assay reagent): 0.446 ppm ZnSO4
SENSITIVITY-EC50 VALUES, ZEOCIN TREATED ([1]; Lag Phase assay reagent): 1.445 ppm ZnSO4
SENSITIVITY-EC50 VALUES, ZEOCIN TREATED ([1]; Stationary phase assay reagent): 0.426 ppm ZnSO4
